In brackets after ≈: the same amount, converted by molar mass. Like-named read-outs stand apart in the source and are kept apart here.
Assays:
VeroE6 cells = experiment: Cytotoxicity in mock-infected VeroE6 cells (XTT); assay type: cell-based, African green monkey; settings: mock-infected Vero E6 cells, three days, XTT
HEL cells = experiment: Cytotoxicity in mock-infected HEL cells (MTS); assay type: cell-based, human; settings: mock-infected HEL cells, MTS, mean of 2–3 tests
[1] = molecular target: T1, human recombinant cathepsin L (Homo sapiens, UniProt P07711); experiment: biochemical; assay type: biochemical; settings: read-out: Cathepsin L IC50; pH 5.5, Z-Phe-Arg-AMC substrate
T1 construct: made in house; host or cells: Escherichia coli
T1 sequence (P07711 114-333): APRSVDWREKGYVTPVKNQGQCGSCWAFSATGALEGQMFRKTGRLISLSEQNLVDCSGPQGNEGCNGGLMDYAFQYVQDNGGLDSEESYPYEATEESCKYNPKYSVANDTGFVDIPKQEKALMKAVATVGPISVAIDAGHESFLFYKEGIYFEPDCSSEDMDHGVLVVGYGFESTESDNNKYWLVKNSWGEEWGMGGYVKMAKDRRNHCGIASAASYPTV
Description: Cathepsin L inhibition was assessed as reported. Briefly, human recombinant cathepsin L was expressed in Escherichia coli[33]. Enzymatic activity was determined in 100 mM acetate buffer (pH 5.5) containing 0.1% PEG 8000, 5 mM cysteine and 1.5 mM EDTA. The enzyme was first activated in assay buffer for 5 min at 37 °C, after which it was added to the wells of a black microplate containing the Z-Phe-Arg-AMC substrate (Bachem) and compounds. Formation of the fluorescent cleavage product was monitored for 50 min at 37 °C, using a Tecan Infinit M1000 spectrofluorimeter set at 460 nm emission and 380 nm excitation wavelength. All assay mixtures contained 5% (v/v) DMSO and 0.01% Triton X-100 to prevent false-positive inhibition due to formation of compound aggregates. All measurements were performed in triplicate and repeated twice. The relative inhibition was calculated using the equation: Relative inhibition (%) = 100(1 − vi/vo), where vi and vo designate the reaction velocities in the presence and absence of inhibitor, respectively. IC50 values were determined from nine data points at different inhibitor concentrations.

E. faecalis = experiment: MIC, broth microdilution; assay type: cell-based; settings: Enterococcus faecalis
S. aureus = experiment: MIC, broth microdilution; assay type: cell-based; settings: Staphylococcus aureus
S. haemolyticus = experiment: MIC, broth microdilution; assay type: cell-based; settings: Staphylococcus haemolyticus
S.pyogenes = experiment: MIC, broth microdilution; assay type: cell-based; settings: Streptococcus pyogenes
E. faecium = experiment: microbe, parasite or virus in culture; assay type: cell-based; settings: Enterococcus faecium
S. epidermidis = experiment: microbe, parasite or virus in culture; assay type: cell-based; settings: Staphylococcus epidermidis
HCoV-229E = settings: earlier work; read-out: EC50 against human coronavirus 229E (HCoV-229E); cited from earlier work
[2] = tested on: a panel of bacteria including MRSA; set-up: method as in PMID 32652783; settings: earlier work; cited from earlier work

Structure (SMILES): CC(=O)N[C@H]1[C@H](O[C@@H]2c3ccc(c(Cl)c3)Oc3cc4cc(c3O)Oc3ccc(cc3Cl)C[C@H]3NC(=O)[C@H](n5cc(COCCOCCCC(F)(F)C(F)(F)C(F)(F)C(F)(F)F)nn5)c5ccc(O)c(c5)Oc5cc(O)cc(c5)[C@H](NC3=O)C(=O)N[C@H]4C(=O)N[C@H]3C(=O)N[C@@H]2C(=O)N[C@H](C(=O)O)c2cc(O)cc(O)c2-c2cc3ccc2O)O[C@H](CO)[C@@H](O)[C@@H]1O [Compound 2]
- CC50 (VeroE6 cells): > 100 µM
- CC50 (HEL cells): > 100 µM
- IC50 [1]: 98 ± 1 µM
- MIC (E. faecalis; read-out: Average MIC value, E. faecalis VAN^R,TEI^R/VanA, 1 strain): > 8 µg/mL
- MIC (E. faecalis; read-out: Average MIC value, E. faecalis VAN^S, TEI^S, 2 strains): 1 µg/mL (≈ 0.559 µM)
- MIC (E. faecalis; read-out: MIC value, E.faecalis JH2-2): 1 µg/mL (≈ 0.559 µM)
- MIC (E. faecalis; read-out: MIC value, E.faecalis OG1RF): 1 µg/mL (≈ 0.559 µM)
- MIC (E. faecalis; read-out: MIC value, E.faecalis V583, VAN,TEI/VanA): > 8 µg/mL
- MIC (S. aureus; ATCC 29213 / MSSA, read-out: MIC value, S. aureus ATCC29213, MSSA): 0.0625 µg/mL (≈ 0.0349 µM)
- MIC (S. aureus; MRSA / USA300, read-out: MIC value, S. aureus USA300, CA-MRSA): 0.25 µg/mL (≈ 0.14 µM)
- MIC (S. aureus; MRSA, read-out: Average MIC value, S. aureus CA-MRSA, 1 strain): 0.25 µg/mL (≈ 0.14 µM)
- MIC (S. aureus; MRSA, read-out: Average MIC value, S. aureus MRSA, 7 strains): 0.285 µg/mL (≈ 0.159 µM)
- MIC (S. aureus; MRSA, read-out: MIC value, S. aureus 73OL, MRSA): 0.25 µg/mL (≈ 0.14 µM)
- MIC (S. aureus; MRSA, read-out: MIC value, S. aureus 214OL, MRSA): 0.25 µg/mL (≈ 0.14 µM)
- MIC (S. aureus; MRSA, read-out: MIC value, S. aureus 1041OL, MRSA): 0.25 µg/mL (≈ 0.14 µM)
- MIC (S. aureus; MRSA, read-out: MIC value, S. aureus A6918, MRSA): 0.5 µg/mL (≈ 0.28 µM)
- MIC (S. aureus; MRSA, read-out: MIC value, S. aureus A6919, MRSA): 0.25 µg/mL (≈ 0.14 µM)
- MIC (S. aureus; MRSA, read-out: MIC value, S. aureus Mu50, MRSA): 0.25 µg/mL (≈ 0.14 µM)
- MIC (S. aureus; MRSA, read-out: MIC value, S. aureus N315, MRSA): 0.25 µg/mL (≈ 0.14 µM)
- MIC (S. aureus; MSSA / NEWMAN, read-out: MIC value, S. aureus Newman, MSSA): 0.5 µg/mL (≈ 0.28 µM)
- MIC (S. aureus; MSSA, read-out: Average MIC value, S. aureus MSSA, 4 strains): 0.265 µg/mL (≈ 0.148 µM)
- MIC (S. aureus; MSSA, read-out: MIC value, S. aureus MSSA476, MSSA): 0.25 µg/mL (≈ 0.14 µM)
- MIC (S. aureus; MSSA, read-out: MIC value, S. aureus SA564, MSSA): 0.25 µg/mL (≈ 0.14 µM)
- MIC (S. haemolyticus; S. haemolyticus mecA, 6 strains, read-out: Average MIC value): 1.9 µg/mL (≈ 1.06 µM)
- MIC (S. haemolyticus; S.haemolyticus DALB_R1, mecA, read-out: MIC value): 4 µg/mL (≈ 2.24 µM)
- MIC (S. haemolyticus; S.haemolyticus DALB_R2, mecA, read-out: MIC value): 2 µg/mL (≈ 1.12 µM)
- MIC (S. haemolyticus; S.haemolyticus DALB_R3, mecA, read-out: MIC value): 2 µg/mL (≈ 1.12 µM)
- MIC (S. haemolyticus; S.haemolyticus DALB_R4, mecA, read-out: MIC value): 2 µg/mL (≈ 1.12 µM)
- MIC (S. haemolyticus; S.haemolyticus DALB_R5, mecA, read-out: MIC value): 0.5 µg/mL (≈ 0.28 µM)
- MIC (S. haemolyticus; S.haemolyticus ORI_R1, mecA, read-out: MIC value): 1 µg/mL (≈ 0.559 µM)
- MIC (S.pyogenes; read-out: MIC value, S.pyogenes H232): 0.0625 µg/mL (≈ 0.0349 µM)
- MIC (S.pyogenes; read-out: MIC value, S.pyogenes H550): 0.0625 µg/mL (≈ 0.0349 µM)
- MIC (S.pyogenes; read-out: MIC value, S.pyogenes H578): 0.0625 µg/mL (≈ 0.0349 µM)
- MIC (E. faecium; read-out: Average MIC value, E. faecium VAN^R,TEI^R/VanA, 8 strains): > 8 µg/mL
- MIC (E. faecium; read-out: Average MIC value, E. faecium VAN^S, TEI^S, 1 strain): 1 µg/mL (≈ 0.559 µM)
- MIC (E. faecium; read-out: MIC value, E.faecium E335, VAN,TEI,LNZ/VanA): > 8 µg/mL
- MIC (E. faecium; read-out: MIC value, E.faecium E355, VAN,TEI,LNZ/VanA): > 8 µg/mL
- MIC (E. faecium; read-out: MIC value, E.faecium E832, VAN,TEI,LNZ/VanA): > 8 µg/mL
- MIC (E. faecium; read-out: MIC value, E.faecium E854, VAN,TEI,LNZ/VanA): > 8 µg/mL
- MIC (E. faecium; read-out: MIC value, E.faecium E859, VAN,TEI,LNZ/VanA): > 8 µg/mL
- MIC (E. faecium; read-out: MIC value, E.faecium E1114, VAN,TEI,LNZ/VanA): > 8 µg/mL
- MIC (E. faecium; read-out: MIC value, E.faecium E1131, VAN,TEI,LNZ/VanA): > 8 µg/mL
- MIC (E. faecium; read-out: MIC value, E.faecium E1132, VAN,TEI,LNZ/VanA): > 8 µg/mL
- MIC (E. faecium; read-out: MIC value, E.faecium TX0016): 1 µg/mL (≈ 0.559 µM)
- MIC (S. epidermidis; read-out: Average MIC value, S. epidermidis mecA, 6 strains): 0.645 µg/mL (≈ 0.361 µM)
- MIC (S. epidermidis; read-out: MIC value, S.epidermidis ORI_R1, mecA): 0.5 µg/mL (≈ 0.28 µM)
- MIC (S. epidermidis; read-out: MIC value, S.epidermidis ORI_R2, mecA): 0.5 µg/mL (≈ 0.28 µM)
- MIC (S. epidermidis; read-out: MIC value, S.epidermidis ORI_R3, mecA): 0.25 µg/mL (≈ 0.14 µM)
- MIC (S. epidermidis; read-out: MIC value, S.epidermidis ORI_R4, mecA): 0.5 µg/mL (≈ 0.28 µM)
- MIC (S. epidermidis; read-out: MIC value, S.epidermidis TEI_R1, mecA): 0.125 µg/mL (≈ 0.0699 µM)
- MIC (S. epidermidis; read-out: MIC value, S.epidermidis TEI_R2, mecA): 2 µg/mL (≈ 1.12 µM)
- EC50 (HCoV-229E): > 100 µM
- MIC against a panel of bacteria including MRSA [2]: 0.5 to 1 µM
